Here are results for 6 compounds from patent publication US9380783B2, “Herbicidal composition” (priority 2012, dated 2016).

Common to all, as to type: in vivo
For assay [1], the system named is prickly sida (Sida spinosa L.). Nature of the assay: Test Example 4: soil treatment, prickly sida pot test. The settings on record: read-out: Growth inhibition rate of prickly sida (%) Measured value. As to the method:
Upland field soil was put into a 1/300,000 ha pot, and seeds of prickly sida (Sida spinosa L.) were sown. On the next day, predetermined amounts of the above formulations respectively containing nicosulfuron, prosulfuron, dicamba and bicyclopyrone were diluted with water (in an amount corresponding to 1,000 L/ha) and applied for soil treatment by a small sprayer.

In assay [2] the test system is wild oat (Avena fatua L.). Nature of the assay: Test Example 2: soil treatment, wild oat pot test. The settings on record: 28th day after treatment, read-out: Growth inhibition rate of wild oat (%) Measured value. The text has this:
(§1) Upland field soil was put into a 1/300,000 ha pot, and seeds of wild oat (Avena fatua L.) were sown. […] On the 28th day after treatment, the state of growth of the wild oat was visually observed to determine the growth inhibition rate (%).

For assay [3], the system named is sunn-hemp (Crotalaria juncea L.). Nature of the assay: Test Example 1: soil treatment, sunn-hemp pot test. The settings on record: 28th day after treatment, read-out: Growth inhibition rate of sunn-hemp (%) Measured value. The text has this:
On the 28th day after treatment, the state of growth of the sunn-hemp was visually observed to determine the growth inhibition rate (%) in accordance with the following evaluation standard. The growth inhibition rate (%) (measured value) and the growth inhibition rate (%) (calculated value) calculated by the Colby's formula are shown in Table 1.

Assay [4] has as its system black nightshade (Solanum nigrum L.). Description: Test Example 5: soil treatment, black nightshade pot test. The settings on record: 28th day after treatment, read-out: Growth inhibition rate of black nightshade (%) Measured value. The text has this:
Upland field soil was put into a 1/300,000 ha pot, and seeds of black nightshade (Solanum nigrum L.) were sown. […] On the 28th day after treatment, the state of growth of the black nightshade was visually observed to determine the growth inhibition rate (%).

Assay [5] relates to common lespedeza (Lespedeza striata (Thunb.) Hook. et Arn.). Description: Test Example 10: foliar treatment, common lespedeza pot test. Conditions: Kummerowia striata, foliar treatment at 4.0-leaf stage, 14th day after treatment, read-out: Growth inhibition rate of common lespedeza (%) Measured value. As to the method: Upland field soil was put into a 1/1,000,000 ha pot, and seeds of common lespedeza (Lespedeza striata (Thunb.) Hook. et Arn.) were sown. When the common lespedeza reached 4.0-leaf stage, predetermined amounts of the above formulations respectively containing nicosulfuron, prosulfuron and dicamba were diluted with water (in an amount corresponding to 300 L/ha) and applied for foliar treatment by a small sprayer.

Assay [6] has as its system annual ragweed (Ambrosia artemisiifolia L.). Description: Test Example 9: foliar treatment, annual ragweed pot test. The settings on record: foliar treatment at 6.0 to 8.0-leaf stage, 14th day after treatment, read-out: Growth inhibition rate of annual ragweed (%) Measured value. As to the method:
Upland field soil was put into a 1/1,000,000 ha pot, and seeds of annual ragweed (Ambrosia artemisiifolia L.) were sown. When the annual ragweed reached 6.0 to 8.0-leaf stage, predetermined amounts of the above formulations respectively containing nicosulfuron, prosulfuron and mesotrione were diluted with water (in an amount corresponding to 300 L/ha) and applied for foliar treatment by a small sprayer.
On the 14th day after treatment, the state of growth of the annual ragweed was visually observed to determine the growth inhibition rate (%). The growth inhibition rate (%) (measured value) and the growth inhibition rate (%) calculated in the same manner as in the above Test Example 1 are shown in Table 9.

Assay [7] concerns korean lespedeza (Kummerowia stipulacea (Maxim.) Makino). Description: Test Example 8: soil treatment, korean lespedeza pot test. Conditions: read-out: Growth inhibition rate of korean lespedeza (%) Measured Value. As to the method: Upland field soil was put into a 1/300,000 ha pot, and seeds of korean lespedeza (Kummerowia stipulacea (Maxim.) Makino) were sown. On the next day, predetermined amounts of the above formulations respectively containing nicosulfuron, prosulfuron and bicyclopyrone were diluted with water (in an amount corresponding to 1,000 L/ha) and applied for soil treatment by a small sprayer.

The subject of assay [8] is wild oat (Avena fatua L.). Description: Test Example 3: soil treatment, wild oat pot test. Conditions: 28th day after treatment, read-out: Growth inhibition rate of wild oat (%) Measured value.
From the text: as §1

For assay [9], the system named is ivy-leaved morningglory (Ipomoea hederacea (L.) Jacq.). Description: Test Example 7: soil treatment, ivy-leaved morningglory pot test. Conditions: read-out: Growth inhibition rate of ivy-leaved morningglory (%) Measured value. As to the method:
Upland field soil was put into a 1/300,000 ha pot, and seeds of ivy-leaved morningglory (Ipomoea hederacea (L.) Jacq.) were sown. On the next day, predetermined amounts of the above formulations respectively containing nicosulfuron, prosulfuron and bicyclopyrone were diluted with water (in an amount corresponding to 1,000 L/ha) and applied for soil treatment by a small sprayer.

Assay [10] concerns annual ragweed (Ambrosia artemisiifolia L.). Description: Test Example 6: soil treatment, annual ragweed pot test. The settings on record: 28th day after treatment, read-out: Growth inhibition rate of annual ragweed (%) Measured value. The method, then: Upland field soil was put into a 1/300,000 ha pot, and seeds of annual ragweed (Ambrosia artemisiifolia L.) were sown. On the next day, predetermined amounts of the above formulations respectively containing nicosulfuron, prosulfuron and bromoxynil-octanoate were diluted with water (in an amount corresponding to 1,000 L/ha) and applied for soil treatment by a small sprayer.

Assay [11] has as its system velvetleaf (Abutilon theophrasti Medic.). Nature of the assay: Test Example 11: foliar treatment, velvetleaf pot test. Conditions: read-out: Growth inhibition rate of velvetleaf (%) Measured value. The method, then:
Upland field soil was put into a 1/1,000,000 ha pot, and seeds of velvetleaf (Abutilon theophrasti Medic.) were sown. When the velvetleaf reached 5.0 to 5.3-leaf stage, predetermined amounts of the above formations respectively containing nicosulfuron, prosulfuron, dicamba, bromoxynil-octanoate and bicyclopyrone were diluted with water (in an amount corresponding to 300 L/ha) and applied for foliar treatment by a small sprayer.

Where [12] appears, read: dose 2.5 g/ha, soil treatment, 28th day after treatment.
The mark [13] stands for this setting: soil treatment, 28th day after treatment.
The mark [14] stands for this setting: dose 100 g/ha, soil treatment, 28th day after treatment.

As usually defined, the inhibition is the change of the read-out against control, counted positive when it falls.

Each structure is given as a SMILES string.

With `COc1nc(C)nc(NC(=O)NS(=O)(=O)c2ccccc2CCC(F)(F)F)n1` [Prosulfuron, 1-(4-methoxy-6-methyl-1,3,5-triazin-2-yl)-3-[2-(3,3,3-trifluoropropyl)phenylsulfonyl]urea], the inhibition at 2.5 g/ha in assay [1] (setting [12]) was 20%; in assay [2] (dose 2.5 g/ha), 0%; in assay [7] (setting [12]) it was 50%; in assay [10] (dose 2.5 g/ha), 78%. Moreover, the inhibition at 15 g/ha in [1] (dose 15 g/ha, soil treatment, 28th day after treatment) was 20%; in assay [5] (dose 15 g/ha), 13%; in [6] (dose 15 g/ha), 53%; in assay [8] (dose 15 g/ha), 0%; in assay [10] (dose 15 g/ha), 93%. Further, the inhibition at 50 g/ha in assay [1] (setting [13]) turned out to be 40%; in assay [3] (dose 50 g/ha) it was 60%; in [4] (dose 50 g/ha) it was 20%; in assay [9] (dose 50 g/ha, soil treatment, 14th day after treatment) it was 50%. The inhibition at 10 g/ha in [5] (dose 10 g/ha) amounted to 10%; in assay [6] (dose 10 g/ha), 55%.

In the case of `COc1c(Cl)ccc(Cl)c1C(=O)O` [Dicamba, dicamba], in assay [1] (setting [13]), the inhibition at 50 g/ha was found to be 0%. Moreover, the inhibition at 150 g/ha in assay [1] (dose 150 g/ha, soil treatment, 28th day after treatment) came out at 20%; in assay [5] (dose 150 g/ha), 50%; in assay [11] (dose 150 g/ha, foliar treatment at 5.0 to 5.3-leaf stage, 20th day after treatment), 8%. Further, the inhibition at 400 g/ha in assay [1] (dose 400 g/ha, soil treatment, 28th day after treatment) came to 40%. Moreover, in [5] (dose 100 g/ha), the inhibition at 100 g/ha is 23%.

Take `CCCCCCCC(=O)Oc1c(Br)cc(C#N)cc1Br` [Bromoxynil-octanoate, bromoxynil-octanoate]: the inhibition at 100 g/ha in assay [4] (dose 100 g/ha) and in [10] was 0% each time. The inhibition at 500 g/ha in assay [4] (dose 500 g/ha) and in [10] (dose 500 g/ha) was 0% each time. In addition, the inhibition at 200 g/ha in [10] (dose 200 g/ha) stood at 0%; in [11] (dose 200 g/ha, foliar treatment at 5.0 to 5.3-leaf stage, 20th day after treatment), 5%.

With `CS(=O)(=O)c1ccc(C(=O)C2C(=O)CCCC2=O)c([N+](=O)[O-])c1` [Mesotrione, 2-(4-mesyl-2-nitrobenzoyl)cyclohexane-1,3-dione], the inhibition at 25 g/ha in assay [2] (dose 25 g/ha) was 0%. Also, the results for the inhibition at 150 g/ha in [2] (dose 150 g/ha) and in assay [3] (dose 150 g/ha) were 0% and 30%, respectively. The inhibition at 75 g/ha in [6] (dose 75 g/ha) came out at 25%. Further, the inhibition at 50 g/ha in assay [8] (dose 50 g/ha) worked out at 0%.

On to `COc1cc(OC)nc(NC(=O)NS(=O)(=O)c2ncccc2C(=O)N(C)C)n1` [Nicosulfuron, 2-(4,6-dimethoxypyrimidin-2-ylcarbamoylsulfamoyl)-N,N-dimethylnicotinamide], for which the inhibition at 10 g/ha in assay [1] (dose 10 g/ha, soil treatment, 28th day after treatment) worked out at 10%; in assay [3] (dose 10 g/ha), 30%; in assay [4] (dose 10 g/ha) it was 20%; in [9] (dose 10 g/ha, soil treatment, 14th day after treatment), 0%. Besides, the inhibition at 30 g/ha in assay [1] (dose 30 g/ha, soil treatment, 28th day after treatment) was 10%; in assay [5] (dose 30 g/ha), 5%; in assay [6] (dose 30 g/ha) it was 0%; in [8] (dose 30 g/ha), 70%; in assay [10] (dose 30 g/ha), 0%. Besides, the inhibition at 100 g/ha came out at 20% in assay [1] (setting [14]), 80% in [2] (dose 100 g/ha), 30% in assay [7] (setting [14]) and 0% in assay [10].

Consider `COCCOCc1nc(C(F)(F)F)ccc1C(=O)C1=C(O)C2CCC(C2)C1=O` (centres unmarked) [Bicyclopyrone, 4-hydroxy-3-{2-[(2-methoxyethoxy)methyl]-6-(trifluoromethyl)-3-pyridylcarbonyl}bicyclo[3.2.1]oct-3-en-2-one], for which the inhibition at 25 g/ha turned out to be 25% in [1] (soil) and 5% in [9] (soil). In addition, the inhibition at 400 g/ha in assay [7] (soil) is 78%; in assay [9] (soil), 25%. The inhibition at 100 g/ha in assay [11] (foliar) was found to be 40%.
